In publication PMC9486805, “Identification of a Phage Display-Derived Peptide Interacting with the N-Terminal Region of Factor VII Activating Protease (FSAP) Enables Characterization of Zymogen Activation” (ACS Chemical Biology, 2022):
Entries after “also recorded” stand apart in the source; their conditions may differ.

Experiments:
plasma proteins = assay: Binding of biotinylated NNKC9/41 to immobilized plasma proteins; conditions: Fig 2B, as summarised
Description: (§1) Figure 2 NNKC9/41 interacts with the NTR of pro-FSAP: (A) To determine peptide binding to pro-FSAP, wells were coated with 2 μg/mL pro-FSAP and biotinylated NNKC9/41 and NNK11/189 and their respective scrambled controls were added in different concentration (0–5 μM). Peroxidase-labeled streptavidin was used to detect peptide binding. (B) Same procedure as in (A) except that different proteins were immobilized and biotinylated NNKC9/41 (0–30 μM) was added and its binding was measured. (C) Schematic structure of pro-FSAP with the heavy chain consisting of an NTR, three EGF domains, and a kringle domain, followed by the light chain harboring the serine protease domain (SPD). The binding domains of antibodies used in this study are indicated. (D) Recombinant complete heavy chain (heavy) and truncated heavy chain variants ΔNTR, ΔEGF1, ΔEGF2, ΔEGF3, and ΔKringle were expressed in bacteria and analyzed by sodium dodecyl sulfate poly(acrylamide) gel electrophoresis (SDS-PAGE) followed by Coomassie staining. […] Biotinylated NNKC9/41 or the scrambled control peptide was added at 1 μM and peptide binding was measured with peroxidase-linked streptavidin. […]
(§2) Wells were coated with anti-FSAP polyclonal antibodies (5 μg/mL). […] Subsequently, the plates were washed, and bound peptides were detected with peroxidase-coupled streptavidin. […]

FSAP heavy chain = assay: Binding of biotinylated peptides to captured recombinant FSAP heavy chain; set-up: species or system human; conditions: peptide 1 μM; triplicate wells (Fig 2E)
Description: as §1, §2

ΔEGF3 mutant = assay: Binding of biotinylated peptides to captured ΔEGF3 mutant; set-up: species or system human; conditions: peptide 1 μM; triplicate wells (Fig 2E)
Description: as §1, §2

pro-FSAP in human plasma [1] = biological target: T1, pro-FSAP in human plasma (Homo sapiens, UniProt Q14520); assay: Immunocapture of pro-FSAP from plasma and conversion of pro-uPA to uPA; assay type: biochemical; conditions: hirudin plasma 1:12, 1 h at 37 °C; NNKC9/41 0–25 μM, histones 0–25 μg/mL; PNAPEP1344; three donors (Fig 4B)
T1 construct: from tissue; host or cells: human hirudin or citrate plasma from healthy donors, diluted 1:12
T1 sequence (Q14520 24-560): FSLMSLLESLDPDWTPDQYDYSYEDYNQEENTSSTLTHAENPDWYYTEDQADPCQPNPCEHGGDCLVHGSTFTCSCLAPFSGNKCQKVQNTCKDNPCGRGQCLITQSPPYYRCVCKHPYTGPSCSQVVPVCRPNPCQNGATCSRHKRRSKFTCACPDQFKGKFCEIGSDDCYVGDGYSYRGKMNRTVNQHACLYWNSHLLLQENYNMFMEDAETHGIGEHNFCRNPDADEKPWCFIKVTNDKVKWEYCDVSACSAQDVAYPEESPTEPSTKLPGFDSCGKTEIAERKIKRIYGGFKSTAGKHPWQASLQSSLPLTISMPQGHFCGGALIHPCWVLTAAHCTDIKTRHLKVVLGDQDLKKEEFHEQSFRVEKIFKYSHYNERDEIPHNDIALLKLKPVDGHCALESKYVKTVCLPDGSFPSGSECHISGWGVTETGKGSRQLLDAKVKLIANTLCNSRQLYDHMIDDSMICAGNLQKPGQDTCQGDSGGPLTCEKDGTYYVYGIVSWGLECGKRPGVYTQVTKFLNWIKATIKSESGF
Description: (§3) Figure 4 Comparison of different methods to measure pro-FSAP activation in plasma: (A) hirudin plasma (1:12 dilution) was incubated with histones (0–25 μg/mL), NNKC9/41, or its Ser–Ser linear control (0–25 μM) and the fluorogenic substrate turnover (Ac–Ala–Lys–Nle–Arg–AMC) was monitored. (B) From the same experiment as in (A) after 1 h incubation at 37 °C, samples were captured on anti-FSAP coated wells and the conversion of added pro-uPA to active uPA was measured by determining the turnover of the chromogenic substrate PNAPEP1344 (25 μM). (C) From the same experiment as in (A) after 1 h incubation at 37 °C, samples were captured on anti-FSAP coated wells and α2-antiplasmin antibody was used to detect the formation of FSAP−α2-antiplasmin complexes. […] In (F), the samples with MA-FSAP-570 were not analyzed since this antibody would interfere in the sandwich ELISA. […]
(§4) Human citrate plasma (0.38% w/v) or hirudin plasma (25 μg/mL Lepirudin) was obtained from five healthy donors. […] Hydrolysis of the fluorogenic substrates was measured using a Synergy HI plate reader with excitation at 320 nm and emission at 460 nm at 37 °C for 60 min. The maximal velocity was calculated from the linear part of the progress curve. […]

pro-FSAP in human plasma [2] = biological target: T1, pro-FSAP in human plasma; assay: Formation of FSAP–alpha2-antiplasmin complexes in plasma; assay type: biochemical; conditions: hirudin plasma 1:12, 1 h at 37 °C; NNKC9/41 0–25 μM, histones 0–25 μg/mL; three donors (Fig 4C)
Description: as §3, §4

pro-FSAP in WT/WT plasma = assay: Substrate turnover in WT/WT plasma; assay type: biochemical, human; conditions: WT/WT citrate plasma 1:12; 25 μM (Fig 6A)
Description: Figure 6 Pro-FSAP activation and clotting in plasma by NNKC9/41: (A) citrate plasma (1:12 dilution) from donors with WT/WT, WT/MI, and MI/MI genotypes and WT-FSAP-deficient plasma (FSAP-DP) were compared. Substrate turnover was monitored after addition of NNKC9/41 or the Ser–Ser linear peptide (25 μM each). Results are shown as mean + range of duplicate wells. (B) Pooled prothrombin-deficient citrated plasma (1:5 dilution) was recalcified with 10 mM CaCl2 and incubated with NNKC9/41 or scrambled control peptide (0–25 μM each) for 60 min at 37 °C in the presence or absence of the FSAP-inhibitory MA-FSAP-38C7 (5 μg/mL). Initiation of clotting was achieved by adding the tissue factor/phospholipid and prothrombin complex concentrate. Clotting time was measured as diluted prothrombin time (dPT) in seconds. Data are the mean of three independent experiments. The relative dPT in % of the untreated control is presented as mean ± standard error (SE) (*p <0.05, two-way analysis of variance (ANOVA) and Bonferroni post-test).
as §4

Sequence: CRGAMWMYKRC [NNKC9/41]
- binding to other plasma proteins (plasma proteins): did not bind to any other plasma proteins tested, except FSAP
- peptide binding to heavy chain (FSAP heavy chain): high binding
- peptide binding to ΔEGF3 mutant (ΔEGF3 mutant): higher binding
- pro-uPA conversion (pro-FSAP in human plasma [1]): weaker than histones; also recorded: concentration-dependent effect
- FSAP–alpha2-antiplasmin complex formation (pro-FSAP in human plasma [2]): weaker than histones; also recorded: concentration-dependent effect
- substrate turnover (pro-FSAP in WT/WT plasma): high substrate turnover
